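Assay format: 96-well plates, 48-hour exposure. Definition used: TGI = concentration required for complete inhibition of growth.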
Legend:
Test in all cases: NCI-60 cell line screen, 48 h
[1] = system: NCI-H522 lung
[2] = system: A498 renal
[3] = system: SF-539 CNS
[4] = system: A549 NSCLC
[5] = system: M14 melanoma
[6] = system: HOP-62 NSCLC
[7] = system: SNB-75 CNS
[8] = system: HOP-92 NSCLC
[9] = system: SW-620 colon
[10] = system: SNB-19 CNS

Compound | TGI [1] [µM] | TGI [2] [µM] | TGI [3] [µM] | TGI [4] [µM] | TGI [5] [µM] | TGI [6] [µM] | TGI [7] [µM] | TGI [8] [µM] | TGI [9] [µM] | TGI [10] [µM]
Cc1ccc2c(=O)cc(-c3ccc(-c4ccccc4)s3)[nH]c2n1 | > 56.7 | 72.7 | 36.6 | > 100 | > 100 | > 76.8 | > 100 | > 85.6 | > 100 | > 100
Cc1ccc2nc(NC(=O)/C(Cc3nc4ccc(Cl)cc4[nH]c3=O)=N\NC(C)(C)C)sc2c1 |  | > 100 | > 100 | > 100 | > 100 |  | 83.1 | > 100 | > 100 | > 100
CCOc1ccc(-n2nnc3c(N)nc(N)nc32)cc1 | > 100 | > 100 | > 100 | > 100 | > 100 | > 100 | > 100 | > 100 | > 100 | > 100
O=C1NC(=S)N(c2ccccc2)C1=O | > 100 | > 100 | > 100 | > 100 |  | > 100 | > 100 | > 100 | > 100 | > 100
CC(C)CN=C(N)N=C(N)N | > 100 |  | > 100 | > 100 | > 100 | > 100 | > 100 | > 100 | > 100 | > 100
CC1(O)OC(=O)C2=C1CCC1C2CCC2(C)C(O)CCC12 (configuration not stated) | > 100 | > 100 | > 100 | > 100 | > 100 | > 100 |  | > 100 | > 100 | > 100
Nc1ccc(C(=O)NN2C(=O)C(Cl)C2c2ccccc2)cc1 (configuration not stated) | > 100 | > 100 | > 100 | > 100 | > 100 | > 100 | > 100 | > 100 | > 100 | > 100
Nc1nc(Cl)c(N)c(NCC2(CO)CC(CCCc3ccccc3)C2)n1 (configuration not stated) | 19.6 | 66.1 | > 64.2 | > 100 | > 53.4 | > 100 | 67.7 | > 100 | > 100 | > 100
COc1ccc2c(c1)CCN1CCc3cc(OC)c(OC)cc3CC21 (configuration not stated) | > 10 | > 100 | > 100 | > 100 | > 100 |  | > 100 | > 100 | > 100 | > 100
COC(=O)c1c(O)ccc2c1C1(Cc3ccccc3C1=O)C(O)O2 (configuration not stated) | 18.1 | > 100 | 55.7 | 69.9 | 52.2 | 28.7 |  | 60.2 | > 100 | > 100
CCOP(=O)(OCC)C(C)(CC)NC (configuration not stated) | > 100 | > 100 | > 100 | > 100 | > 100 | > 100 | > 100 | > 100 | > 100 | > 100
O=C(O)CNC(=O)c1c2ccccc2nc2ccccc12 | > 100 | > 100 | > 100 | > 100 | > 100 | > 100 | > 100 | > 100 | > 100 | > 100
FC(F)(F)c1ccc2nc(Sc3ccccn3)cnc2c1 | 43.7 | 54.1 | 35.9 | > 100 | > 100 | > 100 | 96.1 | > 100 | > 100 | 86.8
COc1cc([C@@H]2c3cc(O)c(OC)cc3C=C(C(N)=O)[C@H]2C(N)=O)ccc1O | > 100 | > 100 | > 100 | > 100 | > 100 | > 100 | > 100 | > 100 | > 100 | > 100
CC1OC(OC2C(OC(=O)[C@@H]3CC(C)(C)C[C@H]4C5=CC[C@@H]6[C@@]7(C)C[C@H](O)[C@H](OC8OC(CO)C(O)C(O)C8O)[C@@](C)(CO)[C@@H]7[C@H](O)C[C@@]6(C)[C@]5(C)CC[C@@]34C)OCC(O)C2O)C(O)C(O)C1O (some centres not stated) | > 7.5 |  | > 7.5 |  | > 7.5 | > 7.5 | > 7.5 | > 7.5 | > 7.5 | > 7.5
CCNC1=C(NC(=O)CC)C(=O)c2ccccc2C1=O | > 100 |  | > 100 | > 100 | 98.5 | > 100 | > 100 | > 100 | > 100 | > 100
CCC(c1c[nH]c2ccc(Br)cc12)c1c[nH]c2ccc(Br)cc12 | 18.1 | 13.3 | 28.6 | 15 | 14.2 | 22.3 |  | 8.3 | 19.1 | 21.4
CC(C)[C@@H]1ON1C(C)c1ccccc1 (some centres not stated) | > 100 | > 100 | > 100 | > 100 | > 100 | > 100 | > 100 | > 100 | > 100 | > 100
COc1ccc(C(=O)c2[nH]c(Nc3ccc(Cl)cc3)c(C(=S)Nc3ccccc3)c2N)cc1 | > 100 | > 100 | > 100 | > 100 |  | > 100 | > 100 | > 100 | > 100 | > 100
OC(c1ccc(-c2ccccc2)cc1)C(F)(F)c1nc2ccccc2o1 (configuration not stated) | > 100 | > 41.2 | > 72.3 | > 100 | > 100 | > 73.6 | > 100 | > 86.3 | > 100 | > 100
COC(=O)c1c(OC(C)=O)ccc2c1c1c(OC(C)=O)c3ccccc3c(OC(C)=O)c1n2Cc1ccccc1 | 3.4 | 43.8 | 4.04 | 34.2 | 17.2 | 25.4 | 6.61 | 3.27 |  | > 50

— PubChem BioAssay (NCI)
